Assay results taken from patent US4562287A, “2-(4-Biphenylyl)-4-hexenoic acid and derivatives thereof having anti-inflammatory activity” (priority 1983, dated 1985).

Experiments:
[1] = tested on: Carragenine induced edema; experiment: Carragenine induced edema, first test (Table 2); assay type: in vivo
Text: |ANTI-INFLAMMATORY ACTIVITY. |Carragenine induced edema, first test.

[2] = tested on: Joint's diameter; experiment: Joint's diameter in arthritis (Table 7); assay type: in vivo; parameters: unit not given here
[3] = tested on: SH Groups in serum; experiment: SH groups in serum (Table 8); assay type: in vivo; conditions: arthritis checks 70, 77
[4] = tested on: erytrocytes sedimetation rate (ESR); experiment: Erytrocytes sedimetation rate (ESR) (Table 8); assay type: in vivo; conditions: arthritis checks 41, 56
[5] = tested on: Carragenine induced edema; experiment: Anti-inflammatory activity on carragenine induced edema (Table 11); assay type: in vivo
[6] = tested on: ulcerogenic effect; conditions: dose 5 mg; cited from earlier work
[7] = tested on: Freund's adjuvant induced arthritis; experiment: Freund's adjuvant induced arthritis, edema inhibition
[8] = tested on: Carragenine edema; experiment: Edema induced by different substances: carragenine (Table 3); assay type: in vivo
Text: (§1) |Edema induced by different substances.

[9] = tested on: Kaolin edema; experiment: Edema induced by different substances: kaolin (Table 3); assay type: in vivo
Text: as §1

[10] = tested on: Yeast edema; experiment: Edema induced by different substances: yeast (Table 3); assay type: in vivo
Text: |Edema induced by different substances. | % edema inhibition

[11] = tested on: Serotonin edema; experiment: Edema induced by different substances: serotonin (Table 3); assay type: in vivo
Text: as §1

[12] = tested on: Dextrose edema; experiment: Edema induced by different substances: dextrose (Table 3); assay type: in vivo
Text: as §1

[13] = tested on: capillary permeability (Histamine); experiment: Effect on the capillary permeability, histamine; assay type: in vivo; conditions: 200 mg/Kg p.o., checks 21.33
Text: (§2) |Effect on the capillary permeability

[14] = tested on: capillary permeability (Dextran); experiment: Effect on the capillary permeability, dextran; assay type: in vivo; conditions: 200 mg/Kg p.o., checks 14.83
Text: as §2

[15] = tested on: Cotton-pellets induced granuloma; experiment: Cotton-pellets induced granuloma; assay type: in vivo; conditions: 200 mg/Kg p.o.
Text: | Cotton-pellets induced granuloma.

[16] = tested on: Carragenine induced edema; experiment: Activity on carragenine induced edema (Table 9); assay type: in vivo
Text: |Activity on carragenine induced edema.

[17] = tested on: Hot plate, endurance time at 52° C.; experiment: Analgesic activity, Hot plate (I); assay type: in vivo; conditions: 50 mg/Kg p.o.
Protocol: Dose endurance time at 52° C. over checks

[18] = tested on: capillary permeability (Serotonin); conditions: 200 mg/Kg p.o., checks 18.16
[19] = British Patent No. 847.779; cited from earlier work

COc1ccc2c(c1)c(CC(=O)O)c(C)n2C(=O)c1ccc(Cl)cc1 [Indomethacin]
% inhibition ([1]; 2.5 mg/Kg p.o.): 33% | % inhibition ([1]; 5 mg/Kg p.o.): 36% | % inhibition ([1]; 10 mg/Kg p.o.): 48% | Joint's diameter ([2]; 1 mg/Kg p.o., 1 week, arthritis checks 0.48, 0.38): 0.38 | Joint's diameter ([2]; 1 mg/Kg p.o., 2 weeks, arthritis checks 0.71, 0.75): 0.50 | Joint's diameter ([2]; 1 mg/Kg p.o., 3 weeks, arthritis checks 0.81, 0.79): 0.49 | Joint's diameter ([2]; 1 mg/Kg p.o., 4 weeks, arthritis checks 0.85, 0.89): 0.55 | Joint's diameter ([2]; 2 mg/Kg p.o., 1 week, arthritis checks 0.48, 0.38): 0.22 | Joint's diameter ([2]; 2 mg/Kg p.o., 2 weeks, arthritis checks 0.71, 0.75): 0.39 | Joint's diameter ([2]; 2 mg/Kg p.o., 3 weeks, arthritis checks 0.81, 0.79): 0.34 | Joint's diameter ([2]; 2 mg/Kg p.o., 4 weeks, arthritis checks 0.85, 0.89): 0.34 | SH groups diminution in % ([3]; 1 mg/Kg p.o.): 78% | SH groups diminution in % ([3]; 2 mg/Kg p.o.): 50% | E.S.R. ([4]; 1 mg/Kg p.o.): 38 | E.S.R. ([4]; 2 mg/Kg p.o.): 15 | % inhibition ([5]; 5 mg/Kg p.o.): 38% | ulcerogenic effect [6]: exhibits surely ulcerogenic effect | Edema inhibition % ([7]; 1 mg/Kg p.o., 2 days): 49% | Edema inhibition % ([7]; 1 mg/Kg p.o., 4 days): 7% | Edema inhibition % ([7]; 1 mg/Kg p.o., 8 days): 27% | Edema inhibition % ([7]; 1 mg/Kg p.o., 12 days): 58% | Edema inhibition % ([7]; 1 mg/Kg p.o., 16 days): 60% | Edema inhibition % ([7]; 1 mg/Kg p.o., 20 days): 37% | Edema inhibition % ([7]; 1 mg/Kg p.o., 24 days): 57% | Edema inhibition % ([7]; 2 mg/Kg p.o., 2 days): 49% | Edema inhibition % ([7]; 2 mg/Kg p.o., 4 days): 35% | Edema inhibition % ([7]; 2 mg/Kg p.o., 8 days): 51% | Edema inhibition % ([7]; 2 mg/Kg p.o., 12 days): 48% | Edema inhibition % ([7]; 2 mg/Kg p.o., 16 days): 71% | Edema inhibition % ([7]; 2 mg/Kg p.o., 20 days): 73% | Edema inhibition % ([7]; 2 mg/Kg p.o., 24 days): 71%

CC=CCC(C(=O)O)c1ccc(-c2ccccc2)cc1 (racemic) [SCR 157, 2-(4-biphenyl)-4-hexenoic acid]
% edema inhibition ([8]; 50 mg/Kg p.o.): 8% | % edema inhibition ([8]; 100 mg/Kg p.o.): 43% | % edema inhibition ([8]; 200 mg/Kg p.o.): 64% | % edema inhibition ([9]; 50 mg/Kg p.o.): 42% | % edema inhibition ([9]; 100 mg/Kg p.o.): 49% | % edema inhibition ([9]; 200 mg/Kg p.o.): 57% | % edema inhibition ([10]; 50 mg/Kg p.o.): 11% | % edema inhibition ([10]; 100 mg/Kg p.o.): 22% | % edema inhibition ([10]; 200 mg/Kg p.o.): 28% | % edema inhibition ([11]; 50 mg/Kg p.o.): 0% | % edema inhibition ([11]; 100 mg/Kg p.o.): 16% | % edema inhibition ([11]; 200 mg/Kg p.o.): 22% | % edema inhibition ([12]; 50 mg/Kg p.o.): 0% | % edema inhibition ([12]; 100 mg/Kg p.o.): 8% | % edema inhibition ([12]; 200 mg/Kg p.o.): 8% | Effect on the capillary permeability, .0. m.micron [13]: 20.28 m.micron | Effect on the capillary permeability, .0. m.micron [14]: 14.85 m.micron | % inhibition [15]: 29% | Inhibition % ([16]; 50 mg/Kg p.o.): 10% | Inhibition % ([16]; 75 mg/Kg p.o.): 31% | Inhibition % ([16]; 112,5 mg/Kg p.o.): 24% | endurance time at 52° C. over checks ([17]; 1 hour): 3 | endurance time at 52° C. over checks ([17]; 2 hours): 26 | % inhibition ([5]; 50 mg/Kg p.o.): 33% | Effect on the capillary permeability, .0. m.micron [18]: 16.57 m.micron | anticholesterinemic and antiliphaemic properties [19]: exhibits properties of anticholesterinemic and antiliphaemic agent
